Laboratory results as given in patent US12653827B2, “Methods of treating indolent systemic mastocytosis” (Telios Pharma Inc., priority 2024, dated 2026).

Key:
mast cells = assay: Monomeric IgE-mediated degranulation and cytokine production in mast cells; format: cell-based, human; details: mast cells from a healthy donor, treated 2 hours, myeloma IgE with SCF
Description: Mast cells from a healthy donor were starved of SCF for 18 hours and treated with Compound 128 for 2 hours. Mast cells were stimulated with SCF (100 ng/mL) or myeloma IgE (3 μg/mL; Millipore Sigma) alone or in combination for 30 minutes (CD63 and Histamine) or 24 hours (cytokine production), respectively. For the histamine and cytokine test, supernatant was collected and the levels of histamine and cytokines were measured as set forth in Example 4 for histamine and Example 7 for cytokines. For the CD63 test, the cells were stained for CD63, data was acquired on a flow cytometer and percent activated mast cells calculated as set forth in Example 4. […] The monomeric IgE contribution to degranulation and cytokine production is inhibited by Compound 128.

BTK = BTK (Homo sapiens, UniProt Q06187); assay: MRGPRX2-induced BTK phosphorylation in ISM-like mast cells; format: cell-based; set-up: endogenous in cells; host or cells: Primary human mast cells differentiated from bone marrow CD34+ cells of healthy donors, cultured with SCF; details: 0.1 μM; C48/80 stimulation
Description: (§1) Human mast cells were differentiated from bone marrow CD34+ cells from four healthy donors and were cultured in the presence of SCF (100 ng/mL) to mimic mast cells in ISM and treated with Compound 128 for two hours prior to stimulation. Mas-related G protein-coupled receptor (MRGPRX2) agonists, Compound 48/80 (C48/80; a product of N-methyl-p-methoxyphenethylamine with formaldehyde) or Substance P (SP) were used to activate the MRGPRX2 pathway. For pBTK test, cells were stimulated with C48/80 (10 μg/mL) for ten minutes at 37° C. and cells were stained. The median fluorescence intensity of phosphorylated BTK was measured. The fold change over unstimulated control for pBTK was calculated. For cytokine test, cells were stimulated with C48/80 (10 μg/mL) or SP (30 μM) for four hours at 37° C. Supernatant was collected and cytokine levels were measured using the BD Cytometric Bead Array (CBA) human soluble protein master buffer kit (Becton Dickinson) and BD CBA human soluble protein flex sets for IL-8, MCP-1, GM-CSF and IL-13 (Becton Dickinson). Cytokine levels were measured and normalized to percent of control, with 0% representing the level of the unstimulated control.

[1] = tested on: IL-8, MCP-1, GM-CSF and IL-13; assay: MRGPRX2-mediated cytokine production in ISM-like mast cells; format: cell-based, human
Description: as §1

BTK, sequence (Q06187 whole entry): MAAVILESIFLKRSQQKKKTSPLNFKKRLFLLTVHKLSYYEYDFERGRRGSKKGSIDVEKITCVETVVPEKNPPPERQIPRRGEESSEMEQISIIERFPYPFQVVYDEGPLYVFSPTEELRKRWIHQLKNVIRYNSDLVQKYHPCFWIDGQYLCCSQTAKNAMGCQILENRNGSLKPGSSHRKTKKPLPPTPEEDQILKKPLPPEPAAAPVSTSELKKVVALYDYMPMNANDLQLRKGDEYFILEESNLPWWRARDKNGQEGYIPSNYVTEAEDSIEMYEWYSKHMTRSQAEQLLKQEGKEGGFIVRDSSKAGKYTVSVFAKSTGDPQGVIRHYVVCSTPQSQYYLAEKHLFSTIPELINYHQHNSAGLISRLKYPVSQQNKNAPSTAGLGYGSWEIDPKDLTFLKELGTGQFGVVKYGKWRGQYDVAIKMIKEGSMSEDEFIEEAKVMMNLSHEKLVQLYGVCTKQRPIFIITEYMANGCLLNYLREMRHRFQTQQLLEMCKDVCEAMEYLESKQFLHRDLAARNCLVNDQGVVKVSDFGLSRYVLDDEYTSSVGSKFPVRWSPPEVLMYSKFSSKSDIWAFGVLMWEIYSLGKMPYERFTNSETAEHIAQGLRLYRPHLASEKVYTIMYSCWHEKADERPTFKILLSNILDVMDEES

## C=CC(=O)N1CCC(F)(CNc2ncnc(N)c2-c2ccc(Oc3ccccc3)cc2)CC1 [Compound 128, 1-(4-(((6-amino-5-(4-phenoxyphenyl)pyrimidin-4-yl)amino)methyl)-4-fluoropiperidin-1-yl)prop-2-en-1-one]
Mast cells
  monomeric IgE contribution to degranulation and cytokine production: inhibited
BTK
  MRGPRX2-induced BTK phosphorylation: inhibited
[1]; 0.1 μM
  MRGPRX2-mediated cytokine production: partially inhibited
[1]; 0.5 and 1 μM
  MRGPRX2-mediated cytokine production: inhibition of cytokine production was increased
[1]; C48/80 (10 μg/mL) stimulation
  C48/80-mediated cytokine production: partial inhibition
[1]; FIGS. 15A-C
  MRGPRX2-mediated cytokine production in ISM-like mast cells (figure legend): inhibits
[1]; Substance P (30 μM) stimulation
  SP-mediated cytokine production: fully inhibited
